The source of these data is BindingDB's records for doi:10.7270/Q2TX3CTT (Broad Institute, 2010).

Molecules are shown by their SMILES.

Chain of Glycogen synthase kinase-3 beta (P49841 whole entry): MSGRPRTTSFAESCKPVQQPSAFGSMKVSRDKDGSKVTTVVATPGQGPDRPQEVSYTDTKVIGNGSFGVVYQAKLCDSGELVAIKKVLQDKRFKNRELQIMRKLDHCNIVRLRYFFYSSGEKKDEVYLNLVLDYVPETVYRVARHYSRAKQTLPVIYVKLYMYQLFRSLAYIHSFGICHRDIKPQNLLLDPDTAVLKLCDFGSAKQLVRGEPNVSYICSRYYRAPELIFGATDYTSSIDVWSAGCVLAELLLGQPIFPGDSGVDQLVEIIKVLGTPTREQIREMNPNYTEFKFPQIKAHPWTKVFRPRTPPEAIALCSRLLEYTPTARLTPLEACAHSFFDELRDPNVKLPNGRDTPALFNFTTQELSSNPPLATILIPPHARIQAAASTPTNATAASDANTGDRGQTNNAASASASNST

The experiment has as its target Glycogen synthase kinase-3 beta (Homo sapiens, UniProt P49841). In words: concentration-response blocking of human GSK3B – biochemical, luminescence, cell-free homogeneous, retest, dose response (AID 434954).
`Cc1nn(CC(=O)NCCCN2CCCCC2)c(=O)c2cccn12` [2-(4-methyl-1-oxidanylidene-pyrrolo[1,2-d][1,2,4]triazin-2-yl)-N-(3-piperidin-1-ylpropyl)ethanamide]: the EC50 (as a rule, the concentration that produces a half-maximal response) is over 300 µM. Next, `CCOC(=O)C(C)Sc1ccc2nnc(-c3ccc(F)cc3)n2n1` (stereo unspecified) [2-[[3-(4-fluorophenyl)-[1,2,4]triazolo[4,3-b]pyridazin-6-yl]thio]propanoic acid ethyl ester]: 19.3 µM. The value for `COC(=O)c1nnn(-c2nonc2N)c1CSc1nc2ccccc2s1` [methyl 1-(4-amino-1,2,5-oxadiazol-3-yl)-5-(1,3-benzothiazol-2-ylsulfanylmethyl)triazole-4-carboxylate] was over 300 µM. The value for `Nc1nonc1-n1nnc(C(=O)NN=Cc2cccc(Cl)c2)c1CN1CCCC1` was 5.25 µM; that for `CCOC(=O)/C(C#N)=C/c1cn(CCC(=O)O)nc1-c1cccc(Cl)c1` [3-[3-(3-chlorophenyl)-4-[(E)-2-cyano-3-ethoxy-3-oxidanylidene-prop-1-enyl]pyrazol-1-yl]propanoic acid] was over 300 µM. `O=C(Nc1ccccc1)Nc1ncc([N+](=O)[O-])s1` [MLS001018461] registered a concentration giving a half-maximal response (EC50) of 27 µM. Turning to `COc1cccc2cc(C(=O)NCc3ccc(C)cc3)c(=N)oc12`, the EC50 was over 300 µM. `CCn1c(COc2ccccc2)nnc1SCC(=O)NC1CC1` came in with an EC50 of over 300 µM. `CC1(C)CC(=O)C=C(NCc2ccccc2)C1` [SMR000186728] came in with a 50% effective concentration (EC50) of over 300 µM. Next, `CCCCc1c(O)nc(SCC(=O)c2ccccc2)n(-c2ccccc2OC)c1=O` [5-Butyl-6-hydroxy-3-(2-methoxy-phenyl)-2-(2-oxo-2-phenyl-ethylsulfanyl)-3H-pyrimidin-4-one]: over 300 µM; `COc1cccc(CSc2nnc(-c3ccc(F)cc3)o2)c1` [MLS000077100]: 22.5 µM; `CCOC(=O)c1cnc2ccc(F)cc2c1Nc1ccc2c(c1)OCCO2` [SMR000198647]: over 300 µM. The value for `O=C(Nc1cccc(Cl)c1)Nc1ccnc(-c2cccnc2)n1` [SMR000337179] was over 300 µM; that for `N#Cc1c(Cl)nc(-c2cccnc2)nc1-c1ccccc1` [MLS001165453] was over 300 µM; that for `Cc1ccc(-c2nc(Nc3cccc(O)c3)c3ccccc3n2)cc1` [MLS001196546] was over 300 µM.

Compound `Nc1nc(NCCO)nc(NCC2CCCO2)c1[N+](=O)[O-]` (stereo unspecified) registered an EC50 of 9.74 µM.

Compound `COc1ccc2occ(C(=O)c3cccs3)c2c1` yielded a concentration giving a half-maximal response (EC50) of 4.03 µM.

Consider `CC(OC(=O)c1nsc(Cl)c1Cl)C(=O)NCc1ccco1` (stereo unspecified) [MLS000074009], for which the half-maximal effective concentration (EC50) was over 100 µM.

`CCC(Sc1ccc2nnc(-c3ccc(F)cc3)n2n1)C(=O)OC` (stereo unspecified) [MLS000093330]: the half-maximal effective concentration (EC50) turned out to be 20.1 µM.

`CCCC1=Nc2ncnn2C(c2sccc2C)C1C(=O)OCC` (stereo unspecified) [SMR000440057] registered a half-maximal effective concentration (EC50) of over 300 µM. Next, `O=C(COc1ccccc1[N+](=O)[O-])N/N=C/c1ccc[nH]1` [(2-Nitro-phenoxy)-acetic acid [1-(1H-pyrrol-2-yl)-meth-(E)-ylidene]-hydrazide]: over 300 µM. The value for `CN(Cc1c(C(=O)NN=Cc2ccc(O)cc2)nnn1-c1nonc1N)C1CCCCC1` [MLS001142838] was 0.186 µM; that for `CCOC(=O)C1C(C)=Nc2ncnn2C1c1ccc(N(C)C)cc1` (stereo unspecified) [ethyl 7-[4-(dimethylamino)phenyl]-5-methyl-1,7-dihydro-[1,2,4]triazolo[1,5-a]pyrimidine-6-carboxylate] was over 300 µM. Next, `CCc1ccccc1NC(=O)CSc1nnc(-c2ccncc2)o1` [SMR000324383]: over 300 µM; `Cc1c(O)ccc(C(=O)CN2CCN(c3ccc(F)cc3)CC2)c1O` [1-(2,4-dihydroxy-3-methylphenyl)-2-[4-(4-fluorophenyl)-1-piperazinyl]ethanone]: over 300 µM. The compound `CCN(CC)CCOC(=O)c1ccc(NC(=S)NC(=O)C=Cc2ccco2)cc1` [MLS001178772] gave a 50% effective concentration (EC50) of over 300 µM.
